# Measurements taken from ChEMBL document CHEMBL1201862, “PubChem BioAssay data set” (2004).
#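 1) Cells in 96-well plates. 2) Compound, 48 h, 5 concentrations. 3) Linear interpolation between surrounding doses. 4) Unreached endpoint = highest concentration. GI50 marks 50% less growth.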 The source made the active and inactive calls. Cut-off read from the data, not from the text of the source: active = GI50 up to about 1.1 µM and inactive = higher.
# Key:
# Assay in all cases: NCI anticancer screen, dose series, 48 h
# 786-0 = test system: 786-0
# A498 = test system: A498
# A549 = test system: A549
# ACHN = test system: ACHN
# CAKI-1 = test system: CAKI-1
# CCRF-CEM = test system: CCRF-CEM
# COLO 205 = test system: COLO 205
# DLD-1 = test system: DLD-1
# DMS-114 = test system: DMS-114
# DMS-273 = test system: DMS-273
# EKVX = test system: EKVX
# HCC 2998 = test system: HCC 2998
# HCT-116 = test system: HCT-116
# HCT-15 = test system: HCT-15
# HL-60 = test system: HL-60
# HOP-18 = test system: HOP-18
# HOP-62 = test system: HOP-62
# HOP-92 = test system: HOP-92
# HT-29 = test system: HT-29
# IGROV-1 = test system: IGROV-1
# K562 = test system: K562
# KM-20L2 = test system: KM-20L2
# KM12 = test system: KM12
# LOX IMVI = test system: LOX IMVI
# M14 = test system: M14
# M19-MEL = test system: M19-MEL
# MOLT-4 = test system: MOLT-4
# Malme-3M = test system: Malme-3M
# NCI-H226 = test system: NCI-H226
# NCI-H23 = test system: NCI-H23
# NCI-H460 = test system: NCI-H460
# NCI-H522 = test system: NCI-H522
# OVCAR-3 = test system: OVCAR-3
# OVCAR-4 = test system: OVCAR-4
# OVCAR-5 = test system: OVCAR-5
# OVCAR-8 = test system: OVCAR-8
# RPMI-8226 = test system: RPMI-8226
# RXF 393 = test system: RXF 393
# SF-268 = test system: SF-268
# SF-295 = test system: SF-295
# SF-539 = test system: SF-539
# SK-MEL-28 = test system: SK-MEL-28
# SK-MEL-2 = test system: SK-MEL-2
# SK-MEL-5 = test system: SK-MEL-5
# SK-OV-3 = test system: SK-OV-3
# SN12C = test system: SN12C
# SNB-19 = test system: SNB-19
# SNB-75 = test system: SNB-75
# SNB-78 = test system: SNB-78
# SR = test system: SR
# SW-620 = test system: SW-620
# TK-10 = test system: TK-10
# U-251 = test system: U-251
# UACC-257 = test system: UACC-257
# UACC-62 = test system: UACC-62
# UO-31 = test system: UO-31
# XF498 = test system: XF498
# MCF7 = test system: MCF7
# NCI/ADR-RES = test system: NCI/ADR-RES
smiles,measurement,setting,value
CCCOP(=S)(N1CC1)N1CC1,GI50,786-0,> 100 µM (inactive)
same,GI50,A498,> 100 µM (inactive)
same,GI50,A549,> 100 µM (inactive)
same,GI50,ACHN,> 100 µM (inactive)
same,GI50,CAKI-1,> 100 µM (inactive)
same,GI50,CCRF-CEM,> 100 µM (inactive)
same,GI50,COLO 205,> 100 µM (inactive)
same,GI50,DLD-1,> 100 µM (inactive)
same,GI50,DMS-114,> 100 µM (inactive)
same,GI50,DMS-273,> 100 µM (inactive)
same,GI50,EKVX,> 100 µM (inactive)
same,GI50,HCC 2998,> 100 µM (inactive)
same,GI50,HCT-116,> 100 µM (inactive)
same,GI50,HCT-15,> 100 µM
same,GI50,HL-60,> 100 µM (inactive)
same,GI50,HOP-18,40.7 µM (inactive)
same,GI50,HOP-62,> 100 µM (inactive)
same,GI50,HOP-92,> 100 µM (inactive)
same,GI50,HT-29,> 100 µM (inactive)
same,GI50,IGROV-1,> 100 µM (inactive)
same,GI50,K562,> 100 µM (inactive)
same,GI50,KM-20L2,> 100 µM (inactive)
same,GI50,KM12,> 100 µM (inactive)
same,GI50,LOX IMVI,> 100 µM (inactive)
same,GI50,M14,> 100 µM (inactive)
same,GI50,M19-MEL,> 100 µM (inactive)
same,GI50,MOLT-4,> 100 µM (inactive)
same,GI50,Malme-3M,> 100 µM (inactive)
same,GI50,NCI-H226,75.9 µM (inactive)
same,GI50,NCI-H23,> 100 µM (inactive)
same,GI50,NCI-H460,> 100 µM (inactive)
same,GI50,NCI-H522,> 100 µM (inactive)
same,GI50,OVCAR-3,> 100 µM (inactive)
same,GI50,OVCAR-4,> 100 µM (inactive)
same,GI50,OVCAR-5,> 100 µM (inactive)
same,GI50,OVCAR-8,> 100 µM (inactive)
same,GI50,RPMI-8226,> 100 µM (inactive)
same,GI50,RXF 393,> 100 µM (inactive)
same,GI50,SF-268,> 100 µM (inactive)
same,GI50,SF-295,> 100 µM (inactive)
same,GI50,SF-539,> 100 µM (inactive)
same,GI50,SK-MEL-28,> 100 µM (inactive)
same,GI50,SK-MEL-2,> 100 µM (inactive)
same,GI50,SK-MEL-5,> 100 µM (inactive)
same,GI50,SK-OV-3,> 100 µM (inactive)
same,GI50,SN12C,> 100 µM (inactive)
same,GI50,SNB-19,> 100 µM (inactive)
same,GI50,SNB-75,48.3 µM (inactive)
same,GI50,SNB-78,> 100 µM (inactive)
same,GI50,SR,> 100 µM (inactive)
same,GI50,SW-620,> 100 µM (inactive)
same,GI50,TK-10,> 100 µM (inactive)
same,GI50,U-251,> 100 µM (inactive)
same,GI50,UACC-257,24.8 µM (inactive)
same,GI50,UACC-62,> 100 µM (inactive)
same,GI50,UO-31,> 100 µM (inactive)
same,GI50,XF498,> 100 µM (inactive)
NCC(Cl)C(O)c1c[nH]c(N)n1 (stereo unspecified),GI50,A498,0.147 µM (active)
same,GI50,A549,0.136 µM (active)
same,GI50,CAKI-1,0.269 µM (active)
same,GI50,CCRF-CEM,1.58 µM (inactive)
same,GI50,COLO 205,0.306 µM (active)
same,GI50,DLD-1,1.84 µM (inactive)
same,GI50,DMS-114,1.54 µM (inactive)
same,GI50,DMS-273,2.05 µM (inactive)
same,GI50,EKVX,0.502 µM (active)
same,GI50,HCC 2998,0.625 µM (active)
same,GI50,HCT-116,0.392 µM (active)
same,GI50,HCT-15,3.48 µM
same,GI50,HL-60,3.46 µM (inactive)
same,GI50,HOP-18,0.275 µM (active)
same,GI50,HOP-62,0.371 µM (active)
same,GI50,HOP-92,5.46 µM (inactive)
same,GI50,HT-29,0.454 µM (active)
same,GI50,IGROV-1,0.245 µM (active)
same,GI50,K562,2.38 µM (inactive)
same,GI50,KM-20L2,0.596 µM (active)
same,GI50,KM12,0.117 µM (active)
same,GI50,LOX IMVI,1.24 µM (inactive)
same,GI50,M19-MEL,2.52 µM (inactive)
same,GI50,MCF7,2.77 µM (inactive)
same,GI50,MOLT-4,0.53 µM (active)
same,GI50,Malme-3M,1.43 µM (inactive)
same,GI50,NCI-H226,2.15 µM (inactive)
same,GI50,NCI-H23,1.49 µM (inactive)
same,GI50,NCI-H460,2.14 µM (inactive)
same,GI50,NCI-H522,1.93 µM (inactive)
same,GI50,NCI/ADR-RES,0.596 µM (active)
same,GI50,OVCAR-3,2.03 µM (inactive)
same,GI50,OVCAR-4,0.668 µM (active)
same,GI50,OVCAR-5,2.01 µM (inactive)
same,GI50,OVCAR-8,0.546 µM (active)
same,GI50,RPMI-8226,0.237 µM (active)
same,GI50,RXF 393,1.19 µM (inactive)
same,GI50,SF-268,1.38 µM (inactive)
same,GI50,SF-295,4.31 µM (inactive)
same,GI50,SF-539,0.473 µM (active)
same,GI50,SK-MEL-28,3.61 µM (inactive)
same,GI50,SK-MEL-2,3.56 µM (inactive)
same,GI50,SK-MEL-5,7.33 µM (inactive)
same,GI50,SK-OV-3,0.533 µM (active)
same,GI50,SN12C,2.12 µM (inactive)
same,GI50,SNB-19,1.16 µM (inactive)
same,GI50,SNB-75,1.84 µM (inactive)
same,GI50,SNB-78,9.79 µM (inactive)
same,GI50,SW-620,0.37 µM (active)
same,GI50,U-251,1.03 µM (active)
same,GI50,UACC-257,3.05 µM (inactive)
same,GI50,UACC-62,3.01 µM (inactive)
same,GI50,UO-31,0.822 µM (active)
same,GI50,XF498,2.45 µM (inactive)
